Reference: publication PMC12688159, “Chemosensory protein 3 is a brain host factor for the induction of enhanced-locomotory activity in the BmNPV-silkworm infection model” (PLOS Pathogens, 2025)

What was measured:
[1] = molecular target: T1, BmCSP3 (chemosensory protein 3) (Bombyx mori, UniProt Q3LBA2); experiment: direct fluorescence titration of the probe with purified protein, single-site saturation fit; type: binding
T1 construct: residues 19–109 of UniProt entry Q3LBA2
T1 sequence (Q3LBA2 19-127): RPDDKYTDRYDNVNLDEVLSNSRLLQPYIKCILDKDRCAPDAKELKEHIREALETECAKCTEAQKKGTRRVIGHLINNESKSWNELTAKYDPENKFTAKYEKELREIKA

[2] = molecular target: T1, BmCSP3 (chemosensory protein 3); experiment: biochemical; parameters: 1-NPN fluorescence displacement from purified BmCSP3; EC50int interpolated, Ki by Cheng-Prusoff; details: EC50int, 1-NPN displacement; read-out: EC50,int ± SE (μΜ)
Experimental: (§1) The dissociation constant (Kd) of the fluorescent probe 1-NPN (N-Phenyl-1-naphthylamine) was determined in solutions containing 4 μΜ BmCSP3 in 20 mM Tris-HCl pH 8.0, 100 mM NaCl by addition of 0 το 20 μM 1-NPN. To determine the ligands’ Ki, 1-NPN displacement was measured in solutions containing 4 μΜ BmCSP3, 10 μΜ 1-NPN and ligand concentrations ranged from 0-20 μΜ and 0–32 μΜ, for the tested neurotranmiters and lipids, respectively. Control samples containing the ligand and 1-NPN, but lacking protein, were run in parallel to determine background fluorescence, which was subtracted from the experimental data. All experiments were performed in technical triplicate. Given that the bottom values never reaches zero and varied among the different experiments, the ligand concentration that reduced the initial fluorescence by 50% (EC50int) was estimated from the displacement binding curves by interpolation, using the built-in interpolation function of GraphPad Prism.

[3] = molecular target: T1, BmCSP3 (chemosensory protein 3); experiment: 1-NPN fluorescence displacement binding assay with purified protein
[4] = molecular target: T1, BmCSP3 (chemosensory protein 3); experiment: biochemical; parameters: 1-NPN fluorescence displacement binding with purified BmCSP3; Ki by Cheng-Prusoff from interpolated EC50; details: 4 uM BmCSP3, 10 uM 1-NPN, pH 8.0, 25 °C; read-out: Ki (μΜ)
Experimental: as §1, with “triplicate. The determination of dissociation constants and the visualization of the binding curves was carried out using the non-linear regression analysis program GraphPad Prism 8 (www.graphpad.com). The Kd of 1-NPN for BmCSP3 was determined to be 5.8 μΜ by fitting the fluorescence data to a single-binding site saturation model described by the equation” for “triplicate.”, “Prism. Subsequently, the ligand’s dissociation constant (Ki) was determined using the Cheng-Prusoff equation: […]” for “Prism.”

| SMILES | Kd [1] [nM] | EC50 [2] [nM] | Ki [3] [nM] | Ki [4] [nM] | Ki ([3]; read-out: Ki) [nM] |
| --- | --- | --- | --- | --- | --- |
| c1ccc(Nc2cccc3ccccc23)cc1 [1-NPN, N-Phenyl-1-naphthylamine] | 5800 | – | – | – | – |
| NCCc1c[nH]c2ccccc12 [Tryptamine] | – | 30 ± 10 | 11 | – | – |
| NCCCC(N)C(=O)O (racemic) [DL-Ornithine] | – | > 20000 | – | > 20000 | – |
| O=C(O)Cc1cc(O)ccc1O [Homogentisic acid] | – | 6760 ± 1580 | 2500 | – | – |
| CC/C=C\C/C=C\C=C\[C@@H](O)CCCCCCCC(=O)O [9(S)-HOTrE, (10E,12Z,15Z)-9-hydroxyoctadeca-10,12,15-trienoic acid] | – | 790 ± 100 | – | – | 290 |
| NCCCC[C@H](N)C(=O)O [L-lysine] | – | > 20000 | – | > 14000 | – |
| CC(=O)NCCc1c[nH]c2ccc(O)cc12 [N-acetylserotonin] | – | 5820 ± 1130 | – | – | 2130 |
| NCC(=O)O [Glycine] | – | > 20000 | – | > 20000 | – |
| NC(=O)CC[C@H](N)C(=O)O [L-glutamine] | – | 7780 ± 1480 | – | – | 2800 |
| NCCc1c[nH]c2ccc(O)cc12 [Serotonin] | – | 4810 ± 1170 | 1800 | – | – |
| Nc1ccccc1C(=O)C[C@H](N)C(=O)O [L-kynurenine] | – | 200 ± 20 | – | – | 72 |
